Data set [1] can be described thus: Evaluation of solubility of two-photon absorption compound in dichloromethane. The following applies: invention compounds compared with Comparative Compound R-1. The format is physicochemical. The method, then:
Compounds D-1, D-2, D-6 and D-29 of the present invention and Comparative Compound R-1 for dichloromethane were evaluated for the solubility (room temperature).

Data set [2] can be described thus: Two-photon absorption cross-sectional area by the Z scanning method. As to conditions: measurement wavelength 405 nm; chloroform solution, about 1×10^−3 mol/l; 1 GM = 1 × 10^−50 cm^4 s molecule^−1 photon^−1. The format is physicochemical. The method, then: The measurement of the two-photon absorption cross-sectional area of the synthesized compound was performed by the Z scanning method described in MANSOOR SHEIK-BAHAE et al., IEEE. Journal of Quantum Electronics, 1990, 26, 760. The Z scanning method is a method widely used as the measuring method of a non-linear optical constant, where in the vicinity of the focus of converged laser beam, a measurement sample is moved along the beam and the change in the quantity of transmitted light is recorded. Since the power density of incident light changes depending upon the position of the sample, when non-linear absorption is present, the quantity of transmitted light attenuates in the vicinity of the focus. The two-photon absorption cross-sectional area was computed by fitting the change in the quantity of transmitted light to a theoretical curve predicted from the incident light intensity, the light converging spot size, the sample thickness and the sample concentration. As the light source for the measurement of two-photon absorption cross-sectional area, a Ti:sapphire pulsed laser (pulse width: 100 fs, repetition: 80 MHz, average output: 1 W, peak power: 100 kW) obtained by combining a […] and a light parametric amplifier was used. As the sample for the measurement of two-photon absorption cross-sectional area, a solution obtained by dissolving the compound in chloroform in a concentration of about 1×10^−3 mol/l was used.
The two-photon absorption cross-sectional areas of Compounds D-1, D-2, D-6 and D-29 of the present invention and Comparative Compound R-1 [recited as Compound D-1 in Patent Document 5 (JP-A-2010-108588)] are shown in Table 1 below.

Molecules are shown by their SMILES.

`CCCCC(CC)COc1ccc(C(=O)c2ccc(-c3ccc(-c4ccc(-c5ccc(C#N)cc5)cc4)cc3)cc2)cc1` [Compound D-1]: the “Solubility (in words)” value in data set [1] is “high solubility”. Further, the “Two-Photon Absorption Cross-Sectional Area” value in data set [2] is given as 900 GM.

Regarding `COCCOCCOCCOCCOCCOc1ccc(C(=O)c2ccc(-c3ccc(-c4ccc(-c5ccc(C#N)cc5)cc4)cc3)cc2)cc1` [Compound D-2], the “Solubility (in words)” value in data set [1] was “high solubility”. Besides, in data set [2], the “Two-Photon Absorption Cross-Sectional Area” value amounted to 860 GM.

Turning to `CCCCC(CC)COc1ccc(C(=O)c2ccc(-c3ccc(-c4ccc(-c5ccc(C#N)cc5)c(OC)c4)cc3OC)cc2)cc1` [Compound D-6], the “Solubility (in words)” value in data set [1] is “high solubility”. In addition, the “Two-Photon Absorption Cross-Sectional Area” value in data set [2] was 1140 GM.

`COc1cc(-c2ccc(-c3ccc(C(=O)c4ccc(OCCOCCOC(C)=O)c(OCCOCCOC(C)=O)c4)cc3)c(OC)c2)ccc1-c1ccc(C(=O)c2ccc(OCCOCCOC(C)=O)c(OCCOCCOC(C)=O)c2)cc1` [Compound D-29]: the “Solubility (in words)” value in data set [1] is “high solubility”. In addition, in data set [2], the “Two-Photon Absorption Cross-Sectional Area” value is on record as 2000 GM.

Consider `N#Cc1ccc(-c2ccc(-c3ccc(-c4ccc(C(=O)c5ccccc5)cc4)cc3)cc2)cc1` [Compound R-1, reference compound], for which the “Solubility (in words)” value in data set [1] was “low”. In data set [2], the “Two-Photon Absorption Cross-Sectional Area” value turned out to be 1700 GM.

The values above are taken from patent publication US20140064053A1, “NON-RESONANT TWO-PHOTON ABSORPTION MATERIAL, NON-RESONANT TWO-PHOTON ABSORPTION RECORDING MATERIAL, RECORDING MEDIUM, RECORDING/REPRODUCING METHOD AND NON-RESONANT TWO-PHOTON ABSORPTION COMPOUND” (FUJIFILM Corporation, priority 2011, published 2014).
